Reference: patent EP0289204B1, “Lithium salt-containing pharmaceutical compositions” (EFAMOL HOLDINGS PLC, priority 1987, dated 1988)
Where two headings read alike, the source gives them in different places.

Experiments:
[1] = Experimental: Each 50 ml water contained 11.4 mg lithium. Each aqueous solution was then shaken with 250 ml of chloroform/methanol (2/l by volume). The chloroform/methanol fraction was then separated off and evaporated to dryness under a stream of nitrogen. The mass of dry extract from the chloroform/methanol phase was weighed and its lithium content determined by flame photometry. The lithium content of the aqueous phase was also measured by flame photometry. • (B) 1 g of pure gamma-linolenic acid was dissolved in 10 ml of chloroform/methanol (2/l by volume). The resulting solution was then thoroughly shaken with 50 ml distilled water. The chloroform/methanol phase was then separated off and evaporated to dryness in a stream of nitrogen and the mass of dry extract was weighed.
[2] = Partition of lithium between water and chloroform/methanol (experiment A), lithium determined by flame photometry; type: physicochemical; details: 50 ml distilled water shaken with 250 ml chloroform/methanol (2/l by volume); range of five repeats
Experimental: Each 50 ml water contained 11.4 mg lithium.

[3] = 1 g in 10 ml chloroform/methanol (2/l by volume) shaken with 50 ml distilled water, range of five repeats
[4] = fatty acid salt, taken as equivalent to the percentage of lithium (experiment A)

Compound	Percentage of total fatty acid/ fatty acid salt* in: Aqueous phase [1, 3]	Percentage of total fatty acid/ fatty acid salt* in: Chloroform/methanol phase [1, 3]	Percentage of total lithium in: Chloroform/methanol phase [2]	Percentage of total lithium in: Aqueous phase [2]	Percentage of total fatty acid/ fatty acid salt* in: Aqueous phase [1, 4]	Percentage of total fatty acid/ fatty acid salt* in: Chloroform/methanol phase [1, 4]	solubility (physchem; alcohol, organic solvent or mixture) [mg/mL]	solubility (physchem; water) [mg/mL]
CCCCC/C=C\C/C=C\C/C=C\CCCCC(=O)O [Gamma-linolenic acid, reference compound]	2-9%	91-98%	–	–	–	–	–	–
[Cl-].[Li+] [Lithium chloride, reference compound]	–	–	1-5%	–	–	–	–	–
CCCCC/C=C\C/C=C\C/C=C\CCCCC(=O)[O-].[Li+] [Lithium gammalinolenate, Lithium gamma-linolenate]	–	–	83-89%	11-17%	11-17%	83-89%	> 30	> 30
